Experimental data reported in patent US11648254B2 (Kumquat Biosciences Inc., priority 2021, dated 2023).
Like-named read-outs stand apart in the source and are kept apart here.

Key:
[1] = test system: NCI-H1975 cells (EGFR T790M L858R); experiment: EGFR-SOS cellular inhibition assay (CellTiter-Glo, 3D); assay type: cell-based; conditions: Homo sapiens
SOS1 = SOS1 (Homo sapiens (Human), UniProt Q07889); experiment: Ras-SOS interaction assay (HTRF); assay type: biochemical
[2] = test system: MIA PaCa-2 cells (K-Ras G12C); experiment: Ras-SOS cellular growth inhibition assay (CellTiter-Glo, 3D); assay type: cell-based; conditions: Homo sapiens
Procedure, shortened: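 Growth read by CellTiter-Glo luminescence about 5 days after dosing with 3-fold dilutions (9 points), added one day post-seeding. Cells: MIA PaCa-2, 3D culture on ultra-low-attachment surface, medium DMEM/Ham's F12 plus 10% FCS and 2.5% horse serum; IC50 by four-parameter fit.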

[3] = 120 h, NCI-H1975, 3D proliferation, about 5 days, read-out: Bio-Cell-Prolif-3D (H1975 IC50)
[4] = NCI-H1975, EGFR T790M L858R, read-out: IC50 in inhibiting growth of NCI-H1975 cell line
[5] = K-RasG13D utilized, read-out: IC50 inhibition of SOS
[6] = K-RasG13D, read-out: IC50 value against SOS1
[7] = MIA PaCa-2, 120 h, MIA PaCa-2, 3D proliferation, about 5 days, read-out: Bio-Cell-Prolif-3D (MiaPaca2 IC50)
[8] = MIA PaCa-2, MIA PaCa-2, read-out: IC50 in inhibiting MIA PaCa-2 cell growth

Sequence of SOS1 (Q07889 564-1049): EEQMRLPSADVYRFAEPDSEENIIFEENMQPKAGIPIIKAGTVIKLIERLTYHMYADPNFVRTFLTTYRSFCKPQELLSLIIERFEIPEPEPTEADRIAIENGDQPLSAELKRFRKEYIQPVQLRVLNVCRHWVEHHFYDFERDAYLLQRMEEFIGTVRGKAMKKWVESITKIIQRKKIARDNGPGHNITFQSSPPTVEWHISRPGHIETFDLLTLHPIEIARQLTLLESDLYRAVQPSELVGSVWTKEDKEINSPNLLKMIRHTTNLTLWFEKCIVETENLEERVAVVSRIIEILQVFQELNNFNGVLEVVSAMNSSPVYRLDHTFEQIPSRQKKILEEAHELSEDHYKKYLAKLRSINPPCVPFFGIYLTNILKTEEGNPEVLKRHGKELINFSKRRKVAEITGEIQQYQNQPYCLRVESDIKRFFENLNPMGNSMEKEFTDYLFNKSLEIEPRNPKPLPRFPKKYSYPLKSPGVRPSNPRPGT

Compound	IC50 [1, 3] [µM]	IC50 [1, 4] [µM]	IC50 (SOS1; [5]) [µM]	IC50 (SOS1; [6]) [µM]	IC50 [2, 7] [µM]	IC50 [2, 8] [µM]
COc1nc2nc(C)nc(N[C@H](C)c3cccc(C(F)(F)CO)c3)c2cc1C1CCS(=O)(=O)CC1 [Compound 239, (R)-4-(4-((1-(3-(1,1-difluoro-2-hydroxyethyl)phenyl)ethyl)amino)-7-methoxy-2-methylpyrido[2,3-d]pyrimidin-6-yl)tetrahydro-2H-thiopyran 1,1-dioxide]	≤ 1	< 0.5	< 0.1	< 0.05	≤ 1	< 0.5
COc1nc2nc(OC3CN(C(C)C)C3)nc(N[C@H](C)c3cccc(C(F)F)c3F)c2cc1C1(C#N)CC1 [Compound 240, (R)-1-(4-((1-(3-(difluoromethyl)-2-fluorophenyl)ethyl)amino)-2-((1-isopropylazetidin-3-yl)oxy)-7-methoxypyrido[2,3-d]pyrimidin-6-yl)cyclopropane-1-carbonitrile]	≤ 1	< 0.5	0.1 to 1		≤ 1	< 0.5
COc1nc2nc(C)nc(N[C@H](C)c3cccc(C(F)(F)C(C)(C)OC4CN(C(C)C)C4)c3F)c2cc1N1CCN(C(C)C)CC1 [Compound 242, (R)-N-(1-(3-(1,1-difluoro-2-((1-isopropylazetidin-3-yl)oxy)-2-methylpropyl)-2-fluorophenyl)ethyl)-6-(4-isopropylpiperazin-1-yl)-7-methoxy-2-methylpyrido[2,3-d]pyrimidin-4-amine]	≤ 1	< 0.5	< 0.1	< 0.05	≤ 1	< 0.5
COc1nc2nc(C)nc(N[C@H](C)c3cccc(C(F)(F)C(C)(C)OC4CNC4)c3F)c2cc1N1CCN(C(C)C)CC1 [Compound 243, (R)-N-(1-(3-(2-(azetidin-3-yloxy)-1,1-difluoro-2-methylpropyl)-2-fluorophenyl)ethyl)-6-(4-isopropylpiperazin-1-yl)-7-methoxy-2-methylpyrido[2,3-d]pyrimidin-4-amine]	≤ 1	< 0.5	< 0.1	< 0.05	≤ 1	< 0.5

Second part, the molecule after the results:

IC50 [1, 3] [µM]	IC50 [1, 4] [µM]	IC50 (SOS1; [5]) [µM]	IC50 (SOS1; [6]) [µM]	IC50 [2, 7] [µM]	IC50 [2, 8] [µM]	Compound
≤ 1	< 0.5	< 0.1	< 0.05	≤ 1	< 0.5	Cc1nc(N[C@H](C)c2cccc(C(F)(F)C(C)(C)O)c2F)c2cc(C3(C#N)CC3)c(N3CCN(C(C)C)CC3)nc2n1 [Compound 244, (R)-1-(4-((1-(3-(1,1-difluoro-2-hydroxy-2-methylpropyl)-2-fluorophenyl)ethyl)amino)-7-(4-isopropylpiperazin-1-yl)-2-methylpyrido[2,3-d]pyrimidin-6-yl)cyclopropane-1-carbonitrile]
1 to 10		< 0.1	< 0.05	1 to 10		Cc1nc(N[C@H](C)c2cccc(C(F)(F)C(C)(C)O)c2F)c2cc(C3(C#N)CC3)c(OC3COC3)nc2n1 [Compound 245, (R)-1-(4-((1-(3-(1,1-difluoro-2-hydroxy-2-methylpropyl)-2-fluorophenyl)ethyl)amino)-2-methyl-7-(oxetan-3-yloxy)pyrido[2,3-d]pyrimidin-6-yl)cyclopropane-1-carbonitrile]
≤ 1	< 0.5	< 0.1	< 0.05	≤ 1	< 0.5	Cc1nc(N[C@H](C)c2cccc(C(F)(F)F)c2F)c2cc(C3CCS(=O)(=O)CC3)c(OC3COC3)nc2n1 [Compound 247, (R)-4-(4-((1-(2-fluoro-3-(trifluoromethyl)phenyl)ethyl)amino)-2-methyl-7-(oxetan-3-yloxy)pyrido[2,3-d]pyrimidin-6-yl)tetrahydro-2H-thiopyran 1,1-dioxide]
